# In patent US9518107B2, “Pharmaceutical compositions containing polypeptides derived from α-1 antitrypsin and methods of use thereof” (YISSUM RESEARCH DEVELOPMENT COMPANY OF THE HEBREW …, priority 2010, dated 2016):
# Assays:
# Female C57BL/6 mice = test: Experimental autoimmune encephalitis (EAE), MOG 35-55 induced, neurological score; assay type: in vivo; settings: for neurological symptoms (neurological score 0 to 6): i.p. 1 μg/kg, thrice a week, from four days after MOG immunization, FIG. 3
# Method: (§1) Female C57BL/6 mice were injected subcutaneously into 4 sites on the back, adjacent to each of the forelimbs and hindlimbs (total amount 200 μl) with a myelin oligodendritic glycoprotein (MOG) 35-55 fragment emulsified with complete Freund's adjuvant. Thereafter, each animal was i.p. injected with pertusis toxin (PTX; 200 ng/mouse) in PBS and an additional
# PTX injection was repeated 2 days later, which is a standard protocol for initiating experimental autoimmune encephalomyelitis (EAE) in mice. UBE polypeptide (SEQ ID NO:2) was intraperitoneally (i.p.) injected (0.3 μg/kg, thrice a week) five days after MOG immunization (day of onset of symptoms). The animals were evaluated for neurological score from 0 (no effect) to 6 (severe neurological symptoms including paralysis). Results are the mean±SE of neurological score (sum of all scores divided by the number of animals in each experimental group) at each of the indicated time intervals after MOG injection.
# as §1, with “additional PTX injection was repeated 2 days later. Four days after MOG immunization, each mouse received i.p. injections (1 μg/kg, thrice a week) of each of the following polypeptides:” for “additional”
# The animals were evaluated for neurological score from 0 (no effect) to 6 (severe neurological symptoms including paralysis). Results are the mean±SE of neurological score (sum of all scores divided by the number of animals in each experimental group) at each of the indicated time intervals after immunization.
# arthritic mice = test: Collagen type II induced arthritis, joint swelling; assay type: in vivo; settings: 1 μg/kg thrice a week, from five days after second immunization; FIG. 16
# Method: Chick collagen type II (2.0 mg) was incubated overnight in 0.01 M acetic acid (0.9 ml) at 4° C. The resulting solution was emulsified with equal volume (1.0 ml) of […] Freund's Adjuvant containing 5.0 mg heat-killed Mycobacterium tuberculosis. Thereafter, the animal was injected intradermally in the tail base with 100 μl of the emulsion and an additional immunization was repeated 21 days later. Five days later, UBE or UBE1 polypeptide were administered (1 μg/kg thrice a week). The animals were evaluated for the difference in joint thickness (mm) between the indicated time intervals and prior to immunization.
# severe sepsis = settings: decrease from about 31% without treatment; further trials failed to replicate; cited from earlier work
substance,measurement,setting,value
"MPPIVRFDHPFLFIIFEEHTQSPLFVGKVVDPTHK (listed as Mus musculus) [UBE-N, peptide corresponding to residues 379-413 of Mus musculus alpha-1-antitrypsin (serpin a1c)]",neurological symptoms (neurological score 0 to 6),Female C57BL/6 mice,reduced the neurological symptoms
"SMPPIVRFDHPFLFIIFEEHTQSPLFVGKVVDPTH (listed as Mus musculus) [UBE-C, peptide corresponding to residues 378-412 of Mus musculus alpha-1-antitrypsin (serpin a1c)]",neurological symptoms (neurological score 0 to 6),Female C57BL/6 mice,reduced the neurological symptoms
"YSMPPIVRFDHPFLFIIFEEHTQSPLFVGKVVDPTHK (listed as Mus musculus) [UBE1, peptide corresponding to residues 377-413 of Mus musculus alpha-1-antitrypsin (serpin a1c)]",neurological damage in animal models of multiple sclerosis,"Female C57BL/6 mice; summary statement, b192 (FIG. 3) does not name UBE1",highly effective in eliminating neurological damage
same,joint swelling (difference in joint thickness),arthritic mice,reduction in joint swelling
drotrecogin alfa,mortality in severe sepsis,severe sepsis,about 25%
